Reference: US9980928B2, “Hydroxy aliphatic substituted phenyl aminoalkyl ether derivatives” (PROUS INSTITUTE FOR BIOMEDICAL RESEARCH, S.A., priority 2012, dated 2018)

Columns and labels:
[1] = target: T1, norepinephrine (NE) transporter (Homo sapiens, UniProt P23975); assay: Norepinephrine transporter binding radioligand inhibition ([3H]-nisoxetine); conditions: concentration 10 μM
T1 construct: expressed in transfected cells; host or cells: CHO cells
Protocol: The norepinephrine (NE) transporter removes NE from the synaptic cleft. The NE transporter terminates the effects of […], enabling its reuse by the presynaptic neuron. The in vitro binding of the compounds of the invention to the NE transporter and the percent inhibition of control-specific binding ([^3H]-nisoxetine in human recombinant CHO cells) is determined following the method described in Pacholczyk et al., (Nature 1991, 350(6316): 350-4.

serotonin transporter = target: T2, serotonin transporter (Homo sapiens, UniProt P31645); assay: Serotonin transporter binding radioligand inhibition ([3H]-imipramine); conditions: concentration 10 μM; read-out: serotonin binding inhibition
T2 construct: expressed in transfected cells; host or cells: CHO cells
Description: The serotonin transporter removes serotonin from the synaptic deft. The serotonin transporter terminates the effects of […], enabling its reuse by the presynaptic neuron.

uptake of norepinephrine = uptake of norepinephrine (Homo sapiens, UniProt P23975); assay: Uptake inhibition of norepinephrine, cellular assay; type: cell-based; conditions: read-out: Norepinephrine reuptake inhibition (IC50 μM)
Protocol: (§1) The effect of the compounds of the present invention as inhibitors of the uptake of norepinephrine and serotonin in cellular assays at concentrations that range from […] to 1 nM is determined following the methods described in Galli, A. et al. J Exp Biol 1995, 198(Pt. 10): 2197-212 and Gu, H. et al. J Biol Chem. 1994, 269(10):7124-30.

uptake of serotonin = uptake of serotonin (Homo sapiens, UniProt P31645); assay: Uptake inhibition of serotonin, cellular assay; type: cell-based; conditions: read-out: Serotonin reuptake inhibition (IC50 μM)
Protocol: as §1

mice [2] = assay: Tail suspension assay in mice; type: in vivo
Protocol: Another method of measuring antidepressant activity that may be used to evaluate the compounds of the present invention is the tail suspension test in mice described in Vogel, H. G. and Vogel, W. H. (Eds.) Drug Discovery and Evaluation, Springer-Verlag Berlin Heidelberg, 1997) pp. 304-3059). The mouse tail suspension assay was conducted 60 minutes after dosing. The duration of immobility was recorded for a period of 5 minutes after tail suspension was initiated, and reduction in the duration of immobility by ≥50% relative to the control group indicated antidepressant activity. Statistical analysis was also performed by using one-way ANOVA followed by Dunnett's test to compare the data of test compound-treated and vehicle control groups. Significance was considered to be P<0.05.

mice [3] = assay: Mouse formalin assay (analgesic activity); type: in vivo
Protocol: The analgesic activity of the compounds of the present invention is determined making use of the mouse formalin test described in Hunskaar, S. J Neurosci Methods 1985, 14(1): 69-76. The hind paw licking time was measured at 5-minute intervals for 30 minutes following subplantar injection of formalin (0.02 mL, 2%). Statistical analysis using one-way ANOVA followed by Dunnett's test was applied for comparison between the test substance-treated and vehicle control groups. P<0.05 was considered significant.

CHO cells = assay: In vitro MTT toxicity screen; type: cell-based, Chinese hamster; conditions: 10 μM, compared to positive control group (10% DMSO)
Protocol: The toxicity of the compounds of the present invention at a concentration of 10 μM has been explored using the tetrazolium salt (MTT) method in CHO cells. The MTT method involving conversion of MTT to colored formazan by cells serves as an indirect measurement of cell growth/cell kill, as reported by several groups (Paimela, T. et al. Mol Vis 2012; 18: 1189-96; Hansen, M. B. et al. J Immunol Methods 1989, 119(2): 203-10).
In the MTT assay, cytotoxicity is correlated with the color of MTT and is measured with a spectrophotometer at the wavelength of 570 nm. Briefly, fresh MTT solution (10 mg/mL in 1×PBS) was added (1:20 volume of medium) and the cells were incubated for 1.5 hours. The cells were lysed and purple formazan was dissolved into the solution by overnight incubation with MTT lysis buffer (20% SDS, 50% N,N-dimethylformamide, 2% acetic acid, 25 mM HCl; the volume of medium+volume of MTT salt solution).

[4] = test system: phosphorylation of CREB in SN56 and T48 cell lines; assay: CREB phosphorylation in SN56 and T48 cell lines (western blot); type: cell-based, mouse; conditions: both cell lines (SN56 and T48)
Protocol: The purpose of the study was to assess the acute biochemical neuronal changes in neurotrophin and synaptic plasticity signaling in vitro after the incubation in SN56 (fusion of mouse septal area cells and neuroblastoma cells with no TRKB expression) and T48 (SN56 stable transfected to express TrkB) cell lines the Examples 3 and 4. These changes were studied with a western blot assessment of Erk, Akt, PLC, Trkb, BDNF and CREB (cAMP response element-binding protein) phosphorilation assays.
Proteins were denatured in 62.5 mM Tris-HCl (pH 6.8), 2% (w/v) SDS, 10% glycerol, 140 mM β-mercaptoethanol and 0.1% (w/v) bromophenol blue, heated at 100° C. for 5 min (except for VGLUT1 blotting: 10 minutes 60° C.) and resolved in denaturing polyacrylamide gels (8% acrylamide); proteins were transferred to a nitrocellulose membrane), and washed twice in Tris-buffered saline containing 0.1% Tween-20 (TBS-T). […]
After primary antibody incubation, membranes were washed with TBS-T and incubated for 1 h at room temperature with the appropriated horseradish peroxidase-conjugated secondary antibody (Promega, Madison, Wis., USA), and the reaction was finally visualized with the Western Blotting Luminol Reagent (Santa Cruz Biotechnology, Santa Cruz, Calif., USA). Western blot replicates were scanned and quantified using a computer-assisted densitometric analysis. […]

Chain of uptake of norepinephrine (P23975 whole entry): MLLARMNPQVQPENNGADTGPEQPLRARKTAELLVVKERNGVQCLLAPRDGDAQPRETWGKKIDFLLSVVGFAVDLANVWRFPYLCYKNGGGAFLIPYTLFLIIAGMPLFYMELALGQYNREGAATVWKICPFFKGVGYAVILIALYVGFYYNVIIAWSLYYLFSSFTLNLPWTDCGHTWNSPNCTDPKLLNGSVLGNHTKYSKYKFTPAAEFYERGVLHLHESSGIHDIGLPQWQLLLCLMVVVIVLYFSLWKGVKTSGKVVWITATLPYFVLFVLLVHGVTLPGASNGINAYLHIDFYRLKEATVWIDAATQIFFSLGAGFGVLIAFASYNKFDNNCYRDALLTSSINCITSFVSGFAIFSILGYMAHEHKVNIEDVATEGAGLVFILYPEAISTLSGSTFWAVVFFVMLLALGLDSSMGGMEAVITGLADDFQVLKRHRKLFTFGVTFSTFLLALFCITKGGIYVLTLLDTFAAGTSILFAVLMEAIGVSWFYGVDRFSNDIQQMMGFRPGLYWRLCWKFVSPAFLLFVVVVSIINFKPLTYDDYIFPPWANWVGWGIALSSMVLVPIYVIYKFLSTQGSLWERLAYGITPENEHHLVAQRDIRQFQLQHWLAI
T1 sequence (P23975 whole entry): as above
Chain of uptake of serotonin (P31645 whole entry): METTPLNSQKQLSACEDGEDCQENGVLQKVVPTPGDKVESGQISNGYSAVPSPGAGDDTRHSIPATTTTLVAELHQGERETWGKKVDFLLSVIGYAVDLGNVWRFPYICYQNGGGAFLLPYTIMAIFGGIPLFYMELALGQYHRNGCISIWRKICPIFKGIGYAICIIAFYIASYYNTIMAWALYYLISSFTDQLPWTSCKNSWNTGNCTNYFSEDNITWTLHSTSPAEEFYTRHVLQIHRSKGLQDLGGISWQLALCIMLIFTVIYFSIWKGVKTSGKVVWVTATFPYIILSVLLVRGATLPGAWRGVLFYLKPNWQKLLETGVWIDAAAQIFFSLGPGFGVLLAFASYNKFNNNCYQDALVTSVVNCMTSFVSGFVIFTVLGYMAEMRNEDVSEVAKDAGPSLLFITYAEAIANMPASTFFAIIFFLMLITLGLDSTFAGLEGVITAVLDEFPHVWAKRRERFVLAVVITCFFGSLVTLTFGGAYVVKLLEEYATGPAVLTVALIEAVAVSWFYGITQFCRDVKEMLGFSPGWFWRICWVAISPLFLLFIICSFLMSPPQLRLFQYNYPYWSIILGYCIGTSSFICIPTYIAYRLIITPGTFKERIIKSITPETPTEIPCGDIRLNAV
T2 sequence (P31645 whole entry): as above

Compound | inhibition at 10 µM [1] [%] | inhibition at 10 µM (serotonin transporter) [%] | IC50 (uptake of norepinephrine) [µM] | IC50 (uptake of serotonin) [µM] | antidepressant effect (duration of immobility) (mice [2]; 90 mg/kg p.o.) | analgesic activity following formalin challenge (hind paw licking time) (mice [3]; 90 mg/kg oral) | cell viability (MTT) (CHO cells) [%] | phosphorylation of CREB [4] | antidepressant effect (duration of immobility) (mice [2]; 30 mg/kg oral, 60 minutes after dosing) | analgesic activity following formalin challenge (hind paw licking time) (mice [3]; 30 mg/kg oral)
CNCC[C@@H](Oc1ccc(CCO)cc1)c1ccccc1.Cl [Example 3, (R)-2-[4-[3-(Methylamino)-1-phenylpropoxy]phenyl]ethanol hydrochloride] | 65 to 90 | 68 to 82 | 1.6 to 2.9 | 2.5 to 4.8 | active | active | 100 | increase significantly |  | 
CNCC[C@H](Oc1ccc(CCO)cc1)c1ccccc1.Cl [Example 4, (S)-2-[4-[3-(Methylamino)-1-phenylpropoxy]phenyl]ethanol hydrochloride] | 65 to 90 | 68 to 82 | 1.6 to 2.9 | 2.5 to 4.8 | active | active | 100 | increase significantly | significant activity | active
